{"source": "patent US8148431B2", "about": "“Osteogenesis promoter containing β-cryptoxanthin as the active ingredient” (Kemin Health, L.C., priority 2002, dated 2012)", "type_in_all_cases": "cell-based, Wistar male rats", "key": {"[1]": {"test_system": "metaphysis tissue of the femur (cancellous bone)", "experiment": "Bone alkaline phosphatase activity in cultured femoral metaphysis tissue pieces", "settings": "for Bone alkaline phosphatase activity: metaphysis tissue, mean ± SE", "procedure": "(§1) The femurs were extracted from rats (Wistar male rats; 4 to 5 weeks old) (purchased from Japan SLC Co., Ltd. and fed with solid Oriental yeast (MF)) under anesthesia with ether under a germfree condition. The femurs were each washed with 0.25 M sucrose solution, and then divided into the diaphysis (cortical bone) and metaphysis (cancellous bone). The bone tissue pieces were cultured in a culture medium (Dulbecco's modified culture medium containing 5% of glucose; serum-free medium) containing. β-cryptoxanthin, etc. at […] in an incubator filled with 5% CO2-95% air for 48 hours. β-cryptoxanthin used was “β-cryptoxanthin” of Extrasynthase Co., cycloheximide used was “Cycloheximide” of Sigma Co. Ltd., β-carotene was “β-carotene” of Sigma ? , xanthine was “Xanthine” of Sigma Co, Ltd., parathormone was “Parathormone” of Sigma Co. Ltd. and prostaglandin E2 was “Prostaglandin E2” of Sigma Co. Ltd. In the control, only the culture medium was used without β-cryptoxanthin or the like.\nThe expression level of alkaline phosphatase, which is the most important enzyme for the acceleration of the calcification of bones, was examined. The tissue pieces cultured in the incubator were washed in 0.25 M sucrose solution, then pulverized in 3 ml of 65 mM barbital buffer (pH 7-4) and treated with ultrasonic waves. The resultant liquid was centrifuged. The supernatant, as the enzyme solution, was determined by a method of Walter ad Schutt in Method of Enzymatic Analysis, Vol. 1-2, p. 856, Academic Press, New York, 1965). Namely, this method was carried out as follows: p-nitrophenylphosphoric acid was used as the substrate. 0.05 ml of the enzyme solution was added to 2 ml of diethanolamine buffer (pH 9.8). After the incubation at 37° C. for 30 minutes, 10 ml of 0.05 N NaOH was added to the mixture. The absorbance (405 nm) was determined with a spectrophotometer to determine bone alkaline phosphatase activity of a bone remedy or a compound known to be effective for the bones.\n(§2) The bone component-increasing effect of β-cryptoxanthin was examined. The diaphysis and metaphysis tissue of the femur was cultured in the above-described culture medium containing β-cryptoxanthin (10^−5 to 10^−5 M) for 48 hours. Calcium level in the bone tissue, alkaline phosphatase activity (enzyme for accelerating the bone calcification) and the amount of deoxyribonucleic acid (DNA; index of number of cells in the bone tissue) were determined by the same methods as in Example 1. In each test group, the determination vas conducted 6 to 8 times and the results were represented by the average value and the standard error. The significant difference was determined by Student's t-test. The result was compared with that of the control. When P value was not higher than 0.01 (**) or not higher than 0.05 (*), the results were statistically significant."}, "[2]": {"test_system": "metaphysis tissue of the femur (cancellous bone)", "experiment": "Bone DNA level in cultured femoral metaphysis tissue pieces", "settings": "for Bone DNA level: metaphysis tissue, mean ± SE", "procedure": "as §1\n(§3) DNA level was determined as an index of the number of cells in the bone tissue. After the culture in an incubator, the tissue pieces were washed with 0.25 M sucrose solution and then the wet weight of them was determined. They were pulverized in 4 ml of 0.1 N NaOH. After the osmosis at 4° C. for 24 hours, the liquid mixture was centrifuged. The supernatant was taken as the sample and determined by a method of Ceriotti et al. (J. Biol. Chem., 241; 34-77, 1951). Namely, 1 ml of concentrated hydrochloric acid and 1 ml of 0.04% indole solution were added to 2 ml of the sample and then the resultant mixture was heated to 100° C. in boiling water. After quenching followed by the extraction with 4 ml of chloroform, the chloroform layer was taken to determine bone DNA level with a spectrophotometer (490 nm).\nas §2"}, "[3]": {"test_system": "diaphysis tissue of the femur (cortical bone)", "experiment": "Bone DNA level in cultured femoral diaphysis tissue pieces", "settings": "for Bone DNA level: diaphysis tissue, mean ± SE", "procedure": "as §1, §3, §2"}, "[4]": {"test_system": "diaphysis tissue of the femur (cortical bone)", "experiment": "Bone calcium level in cultured femoral diaphysis tissue pieces", "settings": "for Bone calcium level: diaphysis tissue, mean ± SE", "procedure": "as §1\n(§4) Bone calcium level in the bone tissue was determined. After the culture in the incubator, the tissue pieces were washed with 0.25 M sucrose solution and dried and then the bone was weighed. Then concentrated nitric acid was added to the tissue pieces. After the incineration at 120° C. for 12 hours, the bone calcium level was determined with an atomic absorption photometer (“Perkin-Elmer 303” of Perkin-Elmer Co.).\nas §2"}, "[5]": {"test_system": "metaphysis tissue of the femur (cancellous bone)", "experiment": "Bone calcium level in cultured femoral metaphysis tissue pieces", "settings": "for Bone calcium level: metaphysis tissue, mean ± SE", "procedure": "as §1, §4\nas §2, with “The diaphysis and metaphysis tissue of the femur was cultured in the above-described culture medium containing β-cryptoxanthin (10^−5 to 10^−5 M) for 48 hours.” left out"}, "[6]": {"settings": "Table 2 (protein synthesis inhibitor experiment), 10^−6 M (each agent), n=6"}, "[7]": {"settings": "β-cryptoxanthin 10^−6 M with cycloheximide"}, "[8]": {"settings": "10^−7 to 10^−5 M, 48 h culture, vs control"}, "[9]": {"settings": "10^−8 to 10^−5 M, 48 h culture, vs control"}}, "note": "Marks after values point to notes of the source that are not given here.", "data": [{"compound": "CC1=C(/C=C/C(C)=C/C=C/C(C)=C/C=C/C=C(C)/C=C/C=C(C)/C=C/C2=C(C)C[C@@H](O)CC2(C)C)C(C)(C)CCC1", "note": "[β-cryptoxanthin]", "values": [{"measurement": "Effect on the enzymatic (alkaline phosphatase) activity in the metaphysis (in words)", "setting": "[1]; 10^−7 to 10^−4 M (so in the source), 48 h culture, vs control", "value": "increase"}, {"measurement": "Bone alkaline phosphatase activity", "setting": "[1]; [6]", "value": "1168.2 ± 30.1* nmol/min/mg protein"}, {"measurement": "Bone alkaline phosphatase activity", "setting": "[1]; 10^−5 M, 48 h culture", "value": "1229.5 ± 40.9** nmol/min/mg protein"}, {"measurement": "Bone alkaline phosphatase activity", "setting": "[1]; 10^−6 M, 48 h culture", "value": "1150.9 ± 26.8** nmol/min/mg protein"}, {"measurement": "Bone alkaline phosphatase activity", "setting": "[1]; 10^−7 M, 48 h culture", "value": "945.2 ± 5.4** nmol/min/mg protein"}, {"measurement": "Bone alkaline phosphatase activity", "setting": "[1]; 10^−8 M, 48 h culture", "value": "918.4 ± 4.3", "unit": "nmol/min/mg protein"}, {"measurement": "Bone alkaline phosphatase activity in metaphysis tissue increased by β-cryptoxanthin: change in the presence of cycloheximide (in words)", "setting": "[1]; [7]", "value": "significantly lowered"}, {"measurement": "Effect on DNA level in the metaphysis tissue (in words)", "setting": "[2]; [8]", "value": "significantly increased"}, {"measurement": "Bone DNA level", "setting": "[2]; [6]", "value": "5.401 ± 0.188* mg/g bone wet weight"}, {"measurement": "Bone DNA level", "setting": "[2]; 10^−5 M, 48 h culture", "value": "5.584 ± 0.530** mg/g bone wet weight"}, {"measurement": "Bone DNA level", "setting": "[2]; 10^−6 M, 48 h culture", "value": "5.359 ± 0.207** mg/g bone wet weight"}, {"measurement": "Bone DNA level", "setting": "[2]; 10^−7 M, 48 h culture", "value": "4.170 ± 0.057** mg/g bone wet weight"}, {"measurement": "Bone DNA level", "setting": "[2]; 10^−8 M, 48 h culture", "value": "3.276 ± 0.207", "unit": "mg/g bone wet weight"}, {"measurement": "Bone DNA level in metaphysis tissue increased by β-cryptoxanthin: change in the presence of cycloheximide (in words)", "setting": "[2]; [7]", "value": "significantly lowered"}, {"measurement": "Effect on DNA level in the diaphysis tissue (in words)", "setting": "[3]; [8]", "value": "significantly increased"}, {"measurement": "Bone DNA level", "setting": "[3]; [6]", "value": "1.800 ± 0.025* mg/g bone wet weight"}, {"measurement": "Bone DNA level", "setting": "[3]; 10^−5 M, 48 h culture", "value": "1.802 ± 0.063** mg/g bone wet weight"}, {"measurement": "Bone DNA level", "setting": "[3]; 10^−6 M, 48 h culture", "value": "1.746 ± 0.016* mg/g bone wet weight"}, {"measurement": "Bone DNA level", "setting": "[3]; 10^−7 M, 48 h culture", "value": "1.788 ± 0.049* mg/g bone wet weight"}, {"measurement": "Bone DNA level", "setting": "[3]; 10^−8 M, 48 h culture", "value": "1.741 ± 0.099", "unit": "mg/g bone wet weight"}, {"measurement": "Bone DNA level in diaphysis tissue increased by β-cryptoxanthin: change in the presence of cycloheximide (in words)", "setting": "[3]; [7]", "value": "significantly lowered"}, {"measurement": "Effect on calcium level in the diaphysis tissue (in words)", "setting": "[4]; [9]", "value": "significant increase"}, {"measurement": "Bone calcium level", "setting": "[4]; [6]", "value": "275.1 ± 4.50* mg/g dry weight"}, {"measurement": "Bone calcium level", "setting": "[4]; 10^−5 M, 48 h culture", "value": "291.7 ± 2.29** mg/g dry weight"}, {"measurement": "Bone calcium level", "setting": "[4]; 10^−6 M, 48 h culture", "value": "272.2 ± 3.15** mg/g dry weight"}, {"measurement": "Bone calcium level", "setting": "[4]; 10^−7 M, 48 h culture", "value": "269.9 ± 6.26** mg/g dry weight"}, {"measurement": "Bone calcium level", "setting": "[4]; 10^−8 M, 48 h culture", "value": "249.6 ± 3.33** mg/g dry weight"}, {"measurement": "Calcium level in diaphysis tissue increased by β-cryptoxanthin: change in the presence of cycloheximide (in words)", "setting": "[4]; [7]", "value": "significantly lowered"}, {"measurement": "Effect on calcium level in the metaphysis tissue (in words)", "setting": "[5]; [9]", "value": "significant increase"}, {"measurement": "Bone calcium level", "setting": "[5]; [6]", "value": "220.0 ± 3.25* mg/g dry weight"}, {"measurement": "Bone calcium level", "setting": "[5]; 10^−5 M, 48 h culture", "value": "213.5 ± 5.59** mg/g dry weight"}, {"measurement": "Bone calcium level", "setting": "[5]; 10^−6 M, 48 h culture", "value": "216.8 ± 2.84** mg/g dry weight"}, {"measurement": "Bone calcium level", "setting": "[5]; 10^−7 M, 48 h culture", "value": "223.6 ± 9.27** mg/g dry weight"}, {"measurement": "Bone calcium level", "setting": "[5]; 10^−8 M, 48 h culture", "value": "204.7 ± 6.40** mg/g dry weight"}, {"measurement": "Calcium level in metaphysis tissue increased by β-cryptoxanthin: change in the presence of cycloheximide (in words)", "setting": "[5]; [7]", "value": "significantly lowered"}]}]}
